Assay results: patent publication US8524978B2, “Composition for production of plant body having improved sugar content, and use thereof” (Japan Science and Technology Agency, priority 2007, dated 2013)

Columns and labels:
Format in all cases: in vivo
[1] = test system: Zea mays L. var. saccharata Sturt; experiment: Cultivation of Zea mays L. var. saccharata Sturt with GSSG, sensory test (Example 3); settings: 50 mL of 0.2 mM, 4 times at root and 4 times sprayed to leaves
Text: (§1) In the present example, Zea mays L. var. saccharata Sturt was cultivated. First, a Zea mays L. var. saccharata Sturt seed (TAKII & CO. Ltd., product number: Canberra 90) was sown in vermiculite (ASAHI INDUSTRIES Co., LTD.). Two weeks after sowing, a Zea mays L. var. saccharata Sturt plant was transplanted to a hydroponic culture pot described in Example 1. To the plant, 3 g of Kumiai phosphorate ammonium nitrate potassium S-604 (Chisso Asahi Fertilizer Co., Ltd.) was applied as an additional fertilizer 4 weeks and 6 weeks after the sowing.
Within 2 weeks from the 5th week after the sowing, 50 mL of 0.2 mM GSSG was applied 4 times at a root of the plant. Within 2 weeks from the 7th week after the sowing, 50 mL of 0.2 mM GSSG was sprayed 4 times to leaves of the plant. For comparison, a Zea mays L. var. saccharata Sturt plant was cultivated by the same method as in the present example, except that GSSG was not applied, and fruit thereof was harvested.
(§2) Fruit was harvested 90 days after the sowing and subjected to a sensory test of sugar content. As a result, it was determined that fruit of the plant applied with GSSG increased in sugar content compared to that of the plant applied with no GSSG. Further, it was determined that the plant applied with GSSG increased in size and number of fruit.

[2] = test system: Zea mays L. var. saccharata Sturt; experiment: Cultivation of Zea mays L. var. saccharata Sturt with GSSG, sensory test (Example 4); settings: 200 mL of 0.5 mM at root twice a week for 12 weeks
Text: as §1, with “cultivated under a condition different from Example 3 in how to apply GSSG.” for “cultivated.”, “One week” for “Two weeks”
During 12 weeks after germination, 200 mL of 0.5 mM GSSG was applied at a root of the plant twice a week. For comparison, a Zea mays L. var. saccharata Sturt plant was cultivated by the same method as in the present example, except that GSSG was not applied, and fruit thereof was harvested.
as §2, with “12 weeks” for “90 days”

[3] = test system: Vitis labrusca (Delaware); experiment: Cultivation of Vitis labrusca with GSSG or GSH, sensory test (Example 5)
Description: In the present invention, Vitis labrusca was cultivated. Specifically, immediately after flowering of a Vitis labrusca (Delaware) plant, a mixed solution of 1 mM gibberellin (GA3) and 1 mM of an agent was applied to anthotaxy of the plant. The agent was GSSG or GSH. Then, the plant was coated with the agent and thereafter produced fruit was harvested. For comparison, a Vitis labrusca plant was cultivated in the same way, except that GA3, but not GSSG or GSH, was applied, and fruit thereof was harvested and subjected to a sensory test described below.
The fruit harvested was subjected to a sensory test of sugar content. As a result, it was determined that fruit of the plant applied with GA3 and GSSG or GSH increased in sugar content compared to that of the plant applied with only GA3. Further, it was determined that the plant applied with GSSG and GA3 increased in size of fruit.

[4] = test system: Citrus unshiu; experiment: Sugar content determination of Citrus unshiu fruit with refractometer (Example 9); settings: leaf surface coated with 0.5 mM one week before harvest; vs no GSSG; ANOVA 5%
Description: In the present example, Citrus unshiu was cultivated. Specifically, one week before an expected date of harvesting Citrus unshiu fruit, a surface of a leaf on a branch having the fruit to be harvested was coated with 0.5 mM GSSG. The fruit was harvested on the expected date.
Next, the fruit harvested was subjected to a sensory test of sugar content. As a result, it was determined that the fruit applied with GSSG increased in sugar content and decreased in acidity. Further, it was determined that the fruit applied with GSSG increased in weight. Furthermore, the fruit obtained was subjected to sugar content determination using “Pocket” Refractometer APAL-1 (ATAGO CO., LTD.). For comparison, fruit applied with no GSSG was also subjected to the sugar content determination. […] In FIG. 6, the vertical scale indicates sugar content (Brix, unit: %).

[5] = test system: Fragaria ananassa; experiment: Cultivation of Fragaria ananassa with GSSG or GSH, sensory tests of fruit (Example 10); settings: 63 days
Description: In the present example, Fragaria ananassa was cultivated with use of GSSG or GSH. Details of cultivation are described below.
(§3) First, Fragaria ananassa seedlings were transplanted to a planter. In the planter, 6 L of vermiculite (ASAHI INDUSTRIES Co., LTD.), 3 L of KUREHA horticultural soil (KUREHA CORPORATION), and 3 L of vermiculite were layered as a lower, middle, and upper layers, respectively.
(§4) During cultivation of Fragaria ananassa plants, 50 mL of 0.2 mM or 0.5 mM GSSG or 50 mL of 0.4 mM or 0.5 mM GSH (adjusted with 0.1N NaOH to be at pH7) was applied once a week at a root per plant. The plants were grown for 63 days without being subjected to bud removal. For comparison, a Fragaria ananassa plant was grown under the same condition, except that GSSG and GSH were not applied. To the plants of any condition, 3 g of Kumiai phosphorate ammonium nitrate potassium S-604 (Chisso Asahi Fertilizer Co., Ltd.) was applied as an additional fertilizer once in 2 weeks.
Next, the fruit harvested was subjected to sensory tests of sugar content and the like. As a result, it was determined that fruit of the plant applied with GSSG increased in sugar content and decreased in acidity compared to that of the plant not applied with GSSG or GSH. Further, it was determined that the plant applied with GSSG increased in number of fruit. It was also determined that fruit of the plant applied with GSH increased in sugar content and acidity.

[6] = test system: Fragaria ananassa; experiment: Sugar content determination of Fragaria ananassa fruit with refractometer (Example 10); settings: 50 mL of 0.2 or 0.5 mM GSSG, or 0.4 or 0.5 mM GSH, once a week at root; significance level 5%
Description: as §3, §4
Further, the fruit obtained was subjected to sugar content determination using “Pocket” Refractometer APAL-1 (ATAGO CO., LTD.). For comparison, fruit not applied with GSSG or GSH was also subjected to the sugar content determination. […] In FIG. 7, the vertical scale indicates sugar content (Brix, unit: %).

Substance: oxidized glutathione [GSSG]
- number of fruit [1]: increased
- size of fruit [1]: increased
- sugar content of fruit (sensory test) ([1]; harvest 90 days after sowing, vs no GSSG): increased
- number of fruit [2]: increased
- size of fruit [2]: increased
- sugar content of fruit (sensory test) ([2]; vs no GSSG): increased
- size of fruit ([3]; 1 mM agent mixed with 1 mM GA3, applied to anthotaxy): increased
- sugar content of fruit (sensory test) ([3]; 1 mM agent mixed with 1 mM gibberellin (GA3), applied to anthotaxy, compared to plant applied with only GA3): increased
- sugar content ([3]; applied without GA3): increased
- sugar content of fruit (Brix) [4]: significantly improved
- number of fruit ([5]; 50 mL of 0.2 or 0.5 mM GSSG once a week at root): increased
- acidity of fruit (sensory test) ([5]; 50 mL of 0.2 or 0.5 mM GSSG, or 0.4 or 0.5 mM GSH, once a week at root): decreased
- sugar content of fruit (sensory test) ([5]; 50 mL of 0.2 or 0.5 mM GSSG, or 0.4 or 0.5 mM GSH, once a week at root, vs plant not applied): increased
- sugar content of fruit (Brix), ANOVA versus fruit not applied [6]: significant difference
